Experiments:
[1] = Clinical pharmacological trial: pharmacokinetics after single-dose edoxaban 15 mg in individuals with renal functional impairment; conditions: for AUC(0-t) / concentration at 24 h / CL renal / Cmax / half-life / Tmax: human, in vivo, 15 mg; for AUC(0-t): AUC0-24h Geometric least squares mean; for AUC(0-t) / concentration at 24 h / CL renal / Cmax / half-life / Tmax / AUC0-24h Geometric least squares mean ratio to healthy adult / Cmax Geometric least squares mean ratio to healthy adult: single-dose 15 mg; for concentration at 24 h: C24h Geometric mean (plasma edoxaban concentration 24 hours after administration); for CL renal: CLR Geometric mean (renal clearance); for Cmax: Cmax Geometric least squares mean; for half-life: t1/2 Geometric least squares mean; for Tmax: tmax Least squares mean
Method: Edoxaban was subjected to a clinical trial targeting individuals with renal functional impairment, in which edoxaban was studied for its pharmacokinetics in the individuals with renal functional impairment (Non-patent literature 4). In this clinical trial, 15 mg of edoxaban was administered at a single dose to each patient in five groups differing in the severity of renal functional impairment.

NVAF patients = assay: Late phase-II trial targeting NVAF patient in Japan (thromboembolic and bleeding events, 12 weeks); type: in vivo, human; conditions: 12 weeks
[2] = healthy adult (CLCR > 80 mL/min)
[3] = mild renal impairment (50 ≦ CLCR ≦ 80 mL/min)
[4] = moderate renal impairment (30 ≦ CLCR < 50 mL/min)
[5] = severe renal impairment (CLCR < 30 mL/min, nondialyzed)
[6] = individuals with severe renal impairment
[7] = 30 mg×1/day, 30 ≦ CLCR < 50 mL/min
[8] = 30 mg×1/day, 50 ≦ CLCR ≦ 80 mL/min
[9] = 45 mg×1/day, 30 ≦ CLCR < 50 mL/min
[10] = 45 mg×1/day, 50 ≦ CLCR ≦ 80 mL/min
[11] = 60 mg×1/day, 30 ≦ CLCR < 50 mL/min
[12] = 60 mg×1/day, 50 ≦ CLCR ≦ 80 mL/min

## CN1CCc2nc(C(=O)N[C@@H]3C[C@@H](C(=O)N(C)C)CC[C@@H]3NC(=O)C(=O)Nc3ccc(Cl)cn3)sc2C1 [edoxaban, N^1-(5-chloropyridin-2-yl)-N^2-((1S,2R,4S)-4-[(dimethylamino)carbonyl]-2-{[(5-methyl-4,5,6,7-tetrahydrothiazolo[5,4-c]pyridin-2-yl)carbonyl]amino}cyclohexyl)ethanediamide]
[1]; [2]
  AUC(0-t): 440 ng·h/mL
  concentration at 24 h: 2.34 ng/mL
  CL renal: 197 mL/min
  Cmax: 88.8 ng/mL
  half-life: 516 min
  Tmax: 1.5 h
[1]; [3]
  AUC(0-t): 569 ng·h/mL
  concentration at 24 h: 3.44 ng/mL
  CL renal: 121 mL/min
  Cmax: 104 ng/mL
  half-life: 489 min
  Tmax: 1.88 h
  AUC0-24h Geometric least squares mean ratio to healthy adult: 1.29
  Cmax Geometric least squares mean ratio to healthy adult: 1.17
[1]; [4]
  AUC(0-t): 726 ng·h/mL
  concentration at 24 h: 5.9 ng/mL
  CL renal: 67.4 mL/min
  Cmax: 113 ng/mL
  half-life: 566 min
  Tmax: 1.38 h
  AUC0-24h Geometric least squares mean ratio to healthy adult: 1.65
  Cmax Geometric least squares mean ratio to healthy adult: 1.27
[1]; peritoneal dialysis patient
  AUC(0-t): 770 ng·h/mL
  concentration at 24 h: 8.24 ng/mL
  Cmax: 83.8 ng/mL
  half-life: 732 min
  Tmax: 2.37 h
  AUC0-24h Geometric least squares mean ratio to healthy adult: 1.75
  Cmax Geometric least squares mean ratio to healthy adult: 0.944
[1]; [5]
  AUC(0-t): 661 ng·h/mL
  concentration at 24 h: 6.88 ng/mL
  CL renal: 32.5 mL/min
  Cmax: 83.6 ng/mL
  half-life: 1010 min
  Tmax: 1.7 h
  AUC0-24h Geometric least squares mean ratio to healthy adult: 1.50
  Cmax Geometric least squares mean ratio to healthy adult: 0.941
[1]; individuals with moderate renal impairment
  Increase of C24 h compared with healthy adults: 2.52 times
[1]; [6]
  Degree of the rise in C24 h relative to healthy adults: approximately 3 times
  Degree of the rise in C24 h relative to individuals with mild renal impairment: approximately 2 times
NVAF patients; [7]
  Bleeding event (major, clinically relevant non-major and minor in total), subjects with event/subjects: (3/15)
  Incidence of bleeding event (major, clinically relevant non-major and minor bleeding in total): 20.0%
  Incidence of major bleeding or clinically relevant non-major bleeding: 6.7%
  Major bleeding or clinically relevant non-major bleeding, subjects with event/subjects: (1/15)
NVAF patients; [8]
  Bleeding event (major, clinically relevant non-major and minor in total), subjects with event/subjects: (14/69)
  Incidence of bleeding event (major, clinically relevant non-major and minor bleeding in total): 20.3%
  Incidence of major bleeding or clinically relevant non-major bleeding: 1.4%
  Major bleeding or clinically relevant non-major bleeding, subjects with event/subjects: (1/69)
NVAF patients; 30 mg×1/day, 80 < CLCR mL/min
  Bleeding event (major, clinically relevant non-major and minor in total), subjects with event/subjects: (7/46)
  Incidence of bleeding event (major, clinically relevant non-major and minor bleeding in total): 15.2%
  Incidence of major bleeding or clinically relevant non-major bleeding: 0%
  Major bleeding or clinically relevant non-major bleeding, subjects with event/subjects: (0/46)
NVAF patients; [9]
  Bleeding event (major, clinically relevant non-major and minor in total), subjects with event/subjects: (6/21)
  Incidence of bleeding event (major, clinically relevant non-major and minor bleeding in total): 28.6%
  Incidence of major bleeding or clinically relevant non-major bleeding: 9.5%
  Major bleeding or clinically relevant non-major bleeding, subjects with event/subjects: (2/21)
NVAF patients; [10]
  Bleeding event (major, clinically relevant non-major and minor in total), subjects with event/subjects: (19/72)
  Incidence of bleeding event (major, clinically relevant non-major and minor bleeding in total): 26.4%
  Incidence of major bleeding or clinically relevant non-major bleeding: 4.2%
  Major bleeding or clinically relevant non-major bleeding, subjects with event/subjects: (3/72)
NVAF patients; 45 mg×1/day, 80 < CLCR mL/min
  Bleeding event (major, clinically relevant non-major and minor in total), subjects with event/subjects: (5/41)
  Incidence of bleeding event (major, clinically relevant non-major and minor bleeding in total): 12.2%
  Incidence of major bleeding or clinically relevant non-major bleeding: 4.9%
  Major bleeding or clinically relevant non-major bleeding, subjects with event/subjects: (2/41)
NVAF patients; [11]
  Bleeding event (major, clinically relevant non-major and minor in total), subjects with event/subjects: (4/15)
  Incidence of bleeding event (major, clinically relevant non-major and minor bleeding in total): 26.7%
  Incidence of major bleeding or clinically relevant non-major bleeding: 0%
  Major bleeding or clinically relevant non-major bleeding, subjects with event/subjects: (0/15)
NVAF patients; [12]
  Bleeding event (major, clinically relevant non-major and minor in total), subjects with event/subjects: (21/68)
  Incidence of bleeding event (major, clinically relevant non-major and minor bleeding in total): 30.9%
  Incidence of major bleeding or clinically relevant non-major bleeding: 10.3%
  Major bleeding or clinically relevant non-major bleeding, subjects with event/subjects: (7/68)
NVAF patients; 60 mg×1/day, 80 < CLCR mL/min
  Bleeding event (major, clinically relevant non-major and minor in total), subjects with event/subjects: (10/46)
  Incidence of bleeding event (major, clinically relevant non-major and minor bleeding in total): 21.7%
  Incidence of major bleeding or clinically relevant non-major bleeding: 0%
  Major bleeding or clinically relevant non-major bleeding, subjects with event/subjects: (0/46)
NVAF patients; 60 mg×1/day, CLCR < 30 mL/min
  Bleeding event (major, clinically relevant non-major and minor in total), subjects with event/subjects: (1/1)
